Where a name gives a salt, the structure may show the parent alone.
Test system: alpha 1a receptors versus alpha 1b and alpha 1d receptors
Assay: Selective Binding Assays: binding to alpha 1a versus alpha 1b and alpha 1d receptors ([125I]-HEAT competition binding)
Design: species or system human
Settings: alpha 1a versus both alpha 1b and alpha 1d; at least about
Experimental: Membranes prepared from the stably transfected human alpha 1a cell line (ATCC CRL 11140) were used to identify compounds that bind to the human alpha 1a adrenergic receptor. These competition binding reactions (total volume=200 μl) contained 50 mM Tris-HCl pH. 7.4, 5 mM EDTA, 150 mM NaCl, 100 pM [^125 I]-HEAT, membranes prepared from the alpha 1a cell line and increasing amounts of unlabeled ligand. Reactions were incubated at room temperature for one hour with shaking. Reactions were filtered onto Whatman GF/C glass fiber filters with a Inotec 96 well cell harvester. Filters were washed three times with ice cold buffer and bound radioactivity was determined (Ki).
Membranes prepared from stably transfected human alpha 1d and alpha 1b cell lines (ATCC CRL 11138 and CRL 11139, respectively) were used to identify compounds that selectively bind to the human alpha 1a adrenergic receptor. These competition binding reactions (total volume=200 μl) contained 50 mM Tris-HCl pH. 7.4, 5 mM EDTA, 150 mM NaCl, 100 pM [^125 I]-HEAT, membranes prepared from cell lines transfected with the respective alpha 1 subtype expression plasmid and increasing amounts of unlabeled ligand. Reactions were incubated at room temperature for one hour with shaking. Reactions were filtered onto Whatman GF/C glass fiber filters with a Inotec 96 well cell harvester. Filters were washed three times with ice cold buffer and bound radioactivity was determined (Ki).

Compound	fold more selective in binding to alpha 1a receptors versus binding to the alpha 1b and alpha 1d receptors
O=C(NCCCN1CCC(c2ccc(F)cc2)CC1)N1C(=O)NC[C@@H](C2CC2)[C@@H]1c1ccc(F)c(F)c1 (relative stereo) [Example 21 (Isomer C), (4R,5S)-, (4S,5S)-, (4R,5R)-, and (4S,5R)-5-Cyclopropyl-4-(3,4-difluorophenyl)-3-[(4'-(4-fluorophenyl)piperidin-1'-yl)propyl]aminocarbonyltetrahydropyrimidin-2-one Hydrochlorides]	at least 10 fold
N#CC1(c2ccc(F)cc2)CCN(CCCNC(=O)N2C(=O)CCCC2c2ccc(F)c(F)c2)CC1 (single isomer, unassigned) [Example 6 (Enantiomer A), Hydrochloride]	at least 10 fold
CC1CNC(=O)N(C(=O)NCCCN2CCC(c3ccc(F)cc3)CC2)C1c1ccc(F)c(F)c1 (single isomer, unassigned) [Example 22 (Isomer C), Hydrochloride]	at least 10 fold
O=C1CCCC(c2ccc(F)c(F)c2)N1C(=O)N[C@@H]1CCN([C@H]2CC[C@H](c3ccccn3)CC2)C1 (single isomer, unassigned) [Example 10 (Enantiomer A), Dihydrochloride]	at least 10 fold
CC1(C)CCC(c2ccc(F)c(F)c2)N(C(=O)NCCCN2CCC(c3ccc(F)cc3)CC2)C1=O.Cl (single isomer, unassigned) [Example 1]	at least 10 fold
O=C(NCCCN1CCC(c2ccc(F)cc2)CC1)N1C(=O)NC[C@H](C2CC2)[C@@H]1c1ccc(F)c(F)c1 (relative stereo) [Example 21 (Isomer D), (4R,5S)-, (4S,5S)-, (4R,5R)-, and (4S,5R)-5-Cyclopropyl-4-(3,4-difluorophenyl)-3-[(4'-(4-fluorophenyl)piperidin-1'-yl)propyl]aminocarbonyltetrahydropyrimidin-2-one Hydrochlorides]	at least 10 fold
CC1(C)CN(Cc2ccccc2)C(=O)N(C(=O)NCCCN2CCC(c3ccc(F)cc3)CC2)C1c1ccc(F)c(F)c1 [Example 19, (4R)- and (4S)-4-(3,4-Difluorophenyl)-5,5-dimethyl-1-benzyl-3-[(4'-(4-fluorophenyl)piperidin-1'-yl)propyl]aminocarbonyltetrahydropyrimidin-2-one Hydrochloride]	at least 10 fold
CC1CC(=O)N(C(=O)NCCCN2CCC(c3ccc(F)cc3)CC2)C(c2ccc(F)c(F)c2)C1 (single isomer, unassigned) [Example 3 (Isomer A), Hydrochloride]	at least 10 fold
N#Cc1cc(F)ccc1C1CCN(CCCNC(=O)N2C(=O)CCCC2c2ccc(F)c(F)c2)CC1 (single isomer, unassigned) [Example 9, hydrochloride]	at least 10 fold
C[C@H](c1ccccc1)N1CC(C)(C)C(c2ccc(F)c(F)c2)N(C(=O)NCCCN2CCC(c3ccc(F)cc3)CC2)C1=O (single isomer, unassigned) [Example 18 (Step 2, Diastereomer A)]	at least 10 fold
CC1(C)CNC(=O)N(C(=O)NCCCN2CCC(c3ccc(F)cc3)CC2)C1c1ccc(F)c(F)c1 (single isomer, unassigned) [Example 18 (Step 3, Enantiomer B), Hydrochloride]	at least 10 fold
O=C1CCCC(c2ccc(F)c(F)c2)N1C(=O)NCCCN1CCC(c2ccccn2)CC1 (single isomer, unassigned) [Example 8, Dihydrochloride]	at least 10 fold
C[C@H](c1ccccc1)N1CCC(c2ccc(F)c(F)c2)N(C(=O)NCCCN2CCC(c3ccc(F)cc3)CC2)C1=O (single isomer, unassigned) [Example 14 (Step 8, Diastereomer A), Hydrochloride]	at least 10 fold
CC1CNC(=O)N(C(=O)NCCCN2CCC(c3ccc(F)cc3)CC2)C1c1ccc(F)c(F)c1 (single isomer, unassigned) [Example 22 (Isomer B), Hydrochloride]	at least 10 fold
N#Cc1ccccc1C1(C#N)CCN(CCCNC(=O)N2C(=O)CCCC2c2ccc(F)c(F)c2)CC1 (racemic) [Example 5, (6RS)-, 6(R)- and 6(S)-1-[3-[4-(2-Cyanophenyl)-4-cyanopiperidin-1-yl]-propylaminocarbonyl]-6-(3,4-difluorophenyl)piperidin-2-one Hydrochloride]	at least 10 fold
O=C(NCCCN1CCC(c2ccc(F)cc2)CC1)N1C(=O)NCC2(CCCCC2)C1c1ccc(F)c(F)c1 (single isomer, unassigned) [Example 20 (Isomer B), (4'R)- and (4'S)-Spirocyclohexane-[1,5']-{4-(3,4-difluorophenyl)-3-[(4'-(4-fluorophenyl)piperidin-1'-yl)propyl]aminocarbonyl}tetrahydropyrimidin-2-one Hydrochloride]	at least 10 fold
CN1CCC(c2ccc(F)c(F)c2)N(C(=O)NCCCN2CCC(c3ccc(F)cc3)CC2)C1=O (stereo not shown) [Example 17, 4-(3,4-Difluorophenyl)-1-methyl-3-[(4'-(4-fluorophenyl)piperidin-1'-yl)propyl]aaminocarbonyltetrahydropyrimidin-2-one Hydrochloride]	at least 10 fold
O=C(NCCCN1CCC(c2ccc(F)cc2)CC1)N1C(=O)NC[C@@H](C2CC2)[C@@H]1c1ccc(F)c(F)c1 (relative stereo) [Example 21 (Isomer A), (4R,5S)-, (4S,5S)-, (4R,5R)-, and (4S,5R)-5-Cyclopropyl-4-(3,4-difluorophenyl)-3-[(4'-(4-fluorophenyl)piperidin-1'-yl)propyl]aminocarbonyltetrahydropyrimidin-2-one Hydrochlorides]	at least 10 fold
C[C@H](c1ccccc1)N1CCC(c2ccc(F)c(F)c2)N(C(=O)NCCCN2CCC(c3ccccc3C#N)CC2)C1=O (stereo partly drawn) [Example 15 (Table 1, entry 2), 4-(3,4-difluorophenyl)-1-((R)-α-methylbenzyl)-3-[(4'-(2-cyanophenyl)piperidin-1'-yl)propyl]aminocarbonyltetrahydro-pyrimidin-2-one]	at least 10 fold
O=C(NCCCN1CCC(c2ccc(F)cc2)CC1)N1C(=O)NCCC1c1ccc(F)c(F)c1 (single isomer, unassigned) [Example 14 (Step 9, Enantiomer A), Hydrochloride]	at least 10 fold
CC1(C)CNC(=O)N(C(=O)NCCCN2CCC(c3ccc(F)cc3)CC2)C1c1ccc(F)c(F)c1 (single isomer, unassigned) [Example 18 (Step 3, Enantiomer A), Hydrochloride]	at least 10 fold
C[C@H](c1ccccc1)N1CCC(c2ccc(F)c(F)c2)N(C(=O)NCCCN2CCC(c3ccccn3)CC2)C1=O (stereo partly drawn) [Example 15 (Table 1, entry 1), 4-(3,4-difluorophenyl)-1-((R)-α-methylbenzyl)-3-[(4'-(2-pyridyl)piperidin-1'-yl)propyl]aminocarbonyltetrahydropyrimidin-2-one]	at least 10 fold
COc1cc(F)ccc1[C@H]1CC[C@H](N2CC[C@@H](NC(=O)N3C(=O)N([C@H](C)c4ccccc4)CCC3c3ccc(F)c(F)c3)C2)CC1 (stereo partly drawn) [Example 15 (Table 1, entry 5), 3-[[3(R)-1-[trans-4-(2-methoxy-4-fluorophenyl)cyclohexyl]pyrrolidin-3-yl]-aminocarbonyl]-1-((R)-α-methylbenzyl)-4-(3,4-difluorophenyl)pyrimidin-2-one]	at least 10 fold
CC1(C)CC(=O)N(C(=O)NCCCN2CCC(c3ccc(F)cc3)CC2)C(c2ccc(F)c(F)c2)C1.Cl (single isomer, unassigned) [Example 2 (Enantiomer A)]	at least 10 fold
O=C1CCCC(c2ccc(F)c(F)c2)N1C(=O)NCCCN1CCC(c2ccc(F)cc2)CC1 (racemic) [Example 4, (6RS)-, 6(R)-, and 6(S)-1-[3-[4-(4-Fluorophenyl)piperidin-1-yl]-propylaminocarbonyl]-6-(3,4-difluorophenyl)piperidin-2-one Hydrochloride]	at least 10 fold
